Results from ChEMBL document CHEMBL1147805, “A new non-azole inhibitor of ABA 8'-hydroxylase: effect of the hydroxyl group substituted for geminal methyl groups in the six-membered ring” (Bioorg Med Chem Lett, 2006).
pKi: −log10 of the molar value. The source made the active and inactive calls. The calls are words filed in the database; no cut-off is given here.

Experiments:
[1] = target: T1, Abscisic acid 8'-hydroxylase 3 (Arabidopsis thaliana, UniProt Q9FH76); test: Activity against CYP707A3 by rice seedling elongation assay at 30 uM; format: functional; details: oryza sativa
T1 sequence (Q9FH76 whole entry): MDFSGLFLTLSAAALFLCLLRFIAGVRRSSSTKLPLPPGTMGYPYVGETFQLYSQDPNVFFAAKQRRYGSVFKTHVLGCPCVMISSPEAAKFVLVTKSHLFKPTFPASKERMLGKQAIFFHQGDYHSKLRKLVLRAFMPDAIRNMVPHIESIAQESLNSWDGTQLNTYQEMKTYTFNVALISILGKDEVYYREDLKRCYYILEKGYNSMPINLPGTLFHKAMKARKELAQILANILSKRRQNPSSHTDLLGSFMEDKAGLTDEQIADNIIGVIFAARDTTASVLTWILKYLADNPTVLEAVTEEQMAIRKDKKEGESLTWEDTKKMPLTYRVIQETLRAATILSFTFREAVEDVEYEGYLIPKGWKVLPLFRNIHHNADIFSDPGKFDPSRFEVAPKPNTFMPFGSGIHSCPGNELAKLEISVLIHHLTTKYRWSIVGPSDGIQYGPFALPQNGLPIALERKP

Radish = test: Induction of drought-stress tolerance in radish seedlings at 400 uM; format: functional, organism-based; details: Raphanus sativus
[2] = target: T1, Abscisic acid 8'-hydroxylase 3; test: Inhibition of Arabidopsis recombinant CYP707A3
[3] = target: T1, Abscisic acid 8'-hydroxylase 3; test: Activity against CYP707A3 by rice seedling elongation assay at 1 uM; format: functional; details: oryza sativa

Row | Activity [1] | pKi [2] | Activity [3] | Structure (SMILES) | Activity (Radish)
1 | 96% | 6.85 |  | C[C@H]1CCC[C@H](O)[C@@]1(O)/C=C/C=C\C(=O)O | Active
2 |  | 5.85 |  | C[C@H]1CCCC(C)(C)[C@@]1(O)/C=C/C=C\C(=O)O | 
3 |  |  |  | C[C@@H]1CCC[C@H](O)[C@@]1(O)/C=C/C=C\C(=O)O (racemic) | inactive
4 |  |  | 22% | CC1=CC(=O)CC(C)(C)C1(O)/C=C/C(C)=C\C(=O)O (stereo unspecified) [ABSCISIC ACID] | 
